The source of these data is US9580463B2 (BRISTOL-MYERS SQUIBB COMPANY, priority 2013, dated 2017).

The test system of assay [1] is HCV genotype 1a (H77 strain) replicon in HUH-7 cells. Nature of the assay: HCV replicon luciferase reporter assay, genotype 1a. Conditions: Hepatitis C virus, 72 h, genotype 1a replicon, 3 days incubation. Type of assay: cell-based. The source says: An HCV replicon whole cell system was established as described by Lohmann V, Korner F, Koch J, Herian U, Theilmann L, Bartenschlager R., Science 285(5424):110-3 (1999) and modified to introduce a luciferase reporter, as first described by Krieger et al (Krieger N, Lohmann V, and Bartenschlager R, J. Virol. 75(10):4614-4624 (2001)). CDNA encoding a humanized form of the Renilla luciferase gene and a linker sequence fused directly to the 3′-end of the luciferase gene were introduced into the replicon construct using an Asc1 restriction site located in core, directly upstream of the neomycin marker gene. The adaptive mutation at position 1179 (serine to isoleucine) was also introduced (Blight K J, Kolykhalov, A A, Rice, C M, Science 290(5498):1972-1974). A stable cell line constitutively expressing this HCV replicon construct was generated by first linearizing plasmid DNAs with ScaI. RNA transcripts were synthesized in vitro using the T7 MegaScript transcription kit (Ambion, Austin, Tex.) according to manufacturer's directions. In vitro transcripts of the cDNA were transfected into the human hepatoma cell line, HUH-7. […] Resulting cell lines were characterized for positive and negative strand RNA production and protein production over time.
A stable HCV replicon luciferase reporter cell line representing the genotype 1a H77 strain (Yanagi M, Purcell R H, Emerson S U, et al. Transcripts from a single full-length cDNA clone of hepatitis C virus are infectious when directly transfected into the liver of a chimpanzee. Proc Natl Acad Sci USA 1997; 94(16):8738-8743) was generated as described previously for the genotype 1b (Con1) replicon luciferase cell line. The replicon construct was modified by introducing mutations were introduced into the genes encoding the NS3 helicase domain (proline replaced by leucine at position 1496) and NS5A (serine to isoleucine at position 2204) to improve replication in cell culture.
HCV replicon luciferase assays were developed to monitor the inhibitory effects of compounds described in the disclosure on HCV genotypes 1a and 1b viral replication. HUH-7 cells, constitutively expressing the HCV replicon, were grown in Dulbecco's Modified Eagle Media (DMEM) (Gibco-BRL) containing 10% Fetal calf serum (FCS) (Sigma) and 1 mg/mL G418 (Gibco-BRL). Compounds were serially diluted 3 folds in DMSO for a twenty-point titration and subsequently transferred to sterile 384-well tissue-culture treated plates (Corning cat #3571). The plates were then seeded with 50 μL of cells at a density of 3.0×10^3 cells/well in DMEM containing 4% FCS (final DMSO concentration at 0.5%). After 3 days incubation at 37° C., cells were analyzed for Renilla Luciferase activity using the EnduRen as substrate (Promega cat #E6485). The EnduRen substrate was diluted in DMEM and then added to the plates to a final concentration of 7.5 μM. The plates were incubated for 2 hrs at 37° C. and then read immediately for 30 seconds with Viewlux Imager (PerkinElmer) using a luminescence program. To assess cytotoxicity of compounds, CC50 values were generated by multiplexing the EnduRen-containing plates with Cell Titer-Blue (Promega, cat # G8082). Cell-Titer Blue (3 μL) was added to each well and incubated for 8 hrs at 37° C. The fluorescence signal from each well was read, with an excitation wavelength at 525/10 nm and an emission wavelength of 598/10 nm, using the Viewlux Imager.
The EC50 values for compounds were calculated by using a four-parameter logistic equation: y=A+((B−A)/(1+((C/x)^D))), where A and B denotes minimal and maximal % inhibition, respectively, C is the EC50, D is the hill slope and x represents compound concentration.
(A replicon is a self-replicating genome or part of one, used to study replication in cells.)

Assay [2] relates to HCV genotype 1b (Con1) replicon in HUH-7 cells. Nature of the assay: HCV replicon luciferase reporter assay, genotype 1b. The conditions noted are these: Hepatitis C virus, 72 h, genotype 1b replicon, 3 days incubation. In kind it is cell-based. In outline: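 Twenty-point, threefold compound titrations (0.5% DMSO) were incubated 3 days at 37 °C with 3.0×10^3 HUH-7 cells/well in 4% FCS. The cells stably carried luciferase replicons: genotype 1b Con1 (S1179I) or 1a H77 (NS3 P1496L, NS5A S2204I). Renilla signal was read after 2 h with 7.5 μM EnduRen, and EC50 was taken from a four-parameter logistic fit. Cytotoxicity (CC50) was measured by Cell Titer-Blue, 8 h.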

Read-outs that look alike come from different tables or passages of the source.

Usually EC50 stands for the concentration giving half of the maximal effect. Consider `COC[C@@H]1C[C@H](C)CC/C=C\[C@@H]2C[C@@]2(C(=O)NS(=O)(=O)C2CC2)NC(=O)[C@@H]2C[C@@H](Oc3nc4cc(OC)ccc4nc3C(F)(F)F)CN2C(=O)[C@H]1NC(=O)OC(C)(C)C(F)(F)F` [Compound 1041, 1,1,1-trifluoro-2-methylpropan-2-yl ((2R,6S,7R,9R,13aS,14aR,16aS,Z)-14a-((cyclopropylsulfonyl)carbamoyl)-2-((7-methoxy-3-(trifluoromethyl)quinoxalin-2-yl)oxy)-7-(methoxymethyl)-9-methyl-5,16-dioxo-1,2,3,5,6,7,8,9,10,11,13a,14,14a,15,16,16a-hexadecahydrocyclopropa[e]pyrrolo[1,2-a][1,4]diazacyclopentadecin-6-yl)carbamate], for which the concentration giving a half-maximal response (EC50) is 0.61 nM in assay [1] (read-out: LE_1a (EC50)); 0.51 to 1 nM in assay [1] (read-out: LE_1a (EC50, range)); 0.75 nM in assay [2] (read-out: LE_1b (EC50)); 0.51 to 1 nM in assay [2] (read-out: LE_1b (EC50, range)).

On to `COC[C@@H]1C[C@@H](C)CC/C=C\[C@@H]2C[C@@]2(C(=O)NS(=O)(=O)C2CC2)NC(=O)[C@@H]2C[C@@H](Oc3nc4cc(OC)ccc4nc3C(F)(F)F)CN2C(=O)[C@H]1NC(=O)OC(C)(C)C(F)(F)F` [Compound 1042, 1,1,1-trifluoro-2-methylpropan-2-yl ((2R,6S,7R,9S,13aS,14aR,16aS,Z)-14a-((cyclopropylsulfonyl)carbamoyl)-2-((7-methoxy-3-(trifluoromethyl)quinoxalin-2-yl)oxy)-7-(methoxymethyl)-9-methyl-5,16-dioxo-1,2,3,5,6,7,8,9,10,11,13a,14,14a,15,16,16a-hexadecahydrocyclopropa[e]pyrrolo[1,2-a][1,4]diazacyclopentadecin-6-yl)carbamate], for which the concentration for a half-maximal effect (EC50) is 5.01 to 35 nM in assay [1] (read-out: LE_1a (EC50, range)) and 1.01 to 5 nM in assay [2] (read-out: LE_1b (EC50, range)).

On to `COC[C@@H]1CCCC/C=C\[C@@H]2C[C@@]2(C(=O)NS(=O)(=O)C2(C)CC2)NC(=O)[C@@H]2C[C@@H](Oc3nccc4cc(OC)ccc34)CN2C(=O)[C@H]1NC(=O)OC(C)(C)C(F)(F)F` [Compound 1001, 1,1,1-trifluoro-2-methylpropan-2-yl ((2R,6S,7R,13aS,14aR,16aS,Z)-2-((6-methoxyisoquinolin-1-yl)oxy)-7-(methoxymethyl)-14a-(((1-methylcyclopropyl)sulfonyl)carbamoyl)-5,16-dioxo-1,2,3,5,6,7,8,9,10,11,13a,14,14a,15,16,16a-hexadecahydrocyclopropa[e]pyrrolo[1,2-a][1,4]diazacyclopentadecin-6-yl)carbamate], for which the EC50 in assay [1] (read-out: LE_1a (EC50, range)) was in the range of 1.01 to 5 nM; in assay [2] (read-out: LE_1b (EC50, range)), 0.51 to 1 nM.

`COC[C@@H]1C[C@@H](C)CC/C=C\[C@@H]2C[C@@]2(C(=O)NS(=O)(=O)C2CC2)NC(=O)[C@@H]2C[C@@H](Oc3ncc(OC)c4ccccc34)CN2C(=O)[C@H]1NC(=O)OC(C)(C)C(F)(F)F` [Compound 1013, 1,1,1-trifluoro-2-methylpropan-2-yl ((2R,6S,7R,9S,13aS,14aR,16aS,Z)-14a-((cyclopropylsulfonyl)carbamoyl)-2-((4-methoxyisoquinolin-1-yl)oxy)-7-(methoxymethyl)-9-methyl-5,16-dioxo-1,2,3,5,6,7,8,9,10,11,13a,14,14a,15,16,16a-hexadecahydrocyclopropa[e]pyrrolo[1,2-a][1,4]diazacyclopentadecin-6-yl)carbamate]: the concentration for a half-maximal effect (EC50) in assay [1] (read-out: LE_1a (EC50, range)) was 1.01 to 5 nM; in assay [2] (read-out: LE_1b (EC50, range)), 1.01 to 5 nM.

For `COC[C@@H]1C[C@@H](C)CC/C=C\[C@@H]2C[C@@]2(C(=O)NS(=O)(=O)C2(C)CC2)NC(=O)[C@@H]2C[C@@H](Oc3nc4cc(OC)ccc4nc3C(F)(F)F)CN2C(=O)[C@H]1NC(=O)OC(C)(C)C(F)(F)F` [Compound 1031, 1,1,1-trifluoro-2-methylpropan-2-yl ((2R,6S,7R,9S,13aS,14aR,16aS,Z)-2-((7-methoxy-3-(trifluoromethyl)quinoxalin-2-yl)oxy)-7-(methoxymethyl)-9-methyl-14a-(((1-methylcyclopropyl)sulfonyl)carbamoyl)-5,16-dioxo-1,2,3,5,6,7,8,9,10,11,13a,14,14a,15,16,16a-hexadecahydrocyclopropa[e]pyrrolo[1,2-a][1,4]diazacyclopentadecin-6-yl)carbamate], the 50% effective concentration (EC50) in assay [1] (read-out: LE_1a (EC50, range)) is 5.01 to 35 nM; in assay [2] (read-out: LE_1b (EC50, range)), 1.01 to 5 nM.

With `COC[C@@H]1CCCC/C=C\[C@@H]2C[C@@]2(C(=O)NS(=O)(=O)C2CC2)NC(=O)[C@@H]2C[C@@H](Oc3nccc4cc(OC)c(F)cc34)CN2C(=O)[C@H]1NC(=O)OC(C)(C)C` [Compound 1022], the EC50 in assay [1] (read-out: LE_1a (EC50, range)) lay within 1.01 to 5 nM; in assay [2] (read-out: LE_1b (EC50, range)), 1.01 to 5 nM.

Turning to `COC[C@@H]1C[C@@H](C)CC/C=C\[C@@H]2C[C@@]2(C(=O)NS(=O)(=O)C2(C)CC2)NC(=O)[C@@H]2C[C@@H](Oc3ncc(OC)c4ccccc34)CN2C(=O)[C@H]1NC(=O)OC(C)(C)C` [Compound 1011, tert-butyl ((2R,6S,7R,9S,13aS,14aR,16aS,Z)-2-((4-methoxyisoquinolin-1-yl)oxy)-7-(methoxymethyl)-9-methyl-14a-(((1-methylcyclopropyl)sulfonyl)carbamoyl)-5,16-dioxo-1,2,3,5,6,7,8,9,10,11,13a,14,14a,15,16,16a-hexadecahydrocyclopropa[e]pyrrolo[1,2-a][1,4]diazacyclopentadecin-6-yl)carbamate], the 50% effective concentration (EC50) in assay [1] (read-out: LE_1a (EC50, range)) was 1.01 to 5 nM; in assay [2] (read-out: LE_1b (EC50, range)), 1.01 to 5 nM.

Consider `COC[C@@H]1C[C@H](C)CC/C=C\[C@@H]2C[C@@]2(C(=O)NS(=O)(=O)C2(CF)CC2)NC(=O)[C@@H]2C[C@@H](Oc3nc4cc(OC)ccc4nc3C(C)C)CN2C(=O)[C@H]1NC(=O)OC(C)(C)C(F)(F)F` [Compound 1039], for which the EC50 lay in the range of 5.01 to 35 nM in assay [1] (read-out: LE_1a (EC50, range)) and 1.01 to 5 nM in assay [2] (read-out: LE_1b (EC50, range)).

For the compound `COC[C@@H]1C[C@H](C)CC/C=C\[C@@H]2C[C@@]2(C(=O)NS(=O)(=O)C2(C)CC2)NC(=O)[C@@H]2C[C@@H](Oc3nc4cc(OC)ccc4nc3C(C)C)CN2C(=O)[C@H]1NC(=O)OC(C)(C)C` [Compound 1030, tert-butyl ((2R,6S,7R,9R,13aS,14aR,16aS,Z)-2-((3-isopropyl-7-methoxyquinoxalin-2-yl)oxy)-7-(methoxymethyl)-9-methyl-14a-(((1-methylcyclopropyl)sulfonyl)carbamoyl)-5,16-dioxo-1,2,3,5,6,7,8,9,10,11,13a,14,14a,15,16,16a-hexadecahydrocyclopropa[e]pyrrolo[1,2-a][1,4]diazacyclopentadecin-6-yl)carbamate], the EC50 in assay [1] (read-out: LE_1a (EC50, range)) lay within 35 to 620 nM; in assay [2] (read-out: LE_1b (EC50, range)), 5.01 to 35 nM.

As for `COC[C@@H]1C[C@@H](C)CC/C=C\[C@@H]2C[C@@]2(C(=O)NS(=O)(=O)C2(CF)CC2)NC(=O)[C@@H]2C[C@@H](Oc3nc4cc(OC)ccc4nc3C(C)C)CN2C(=O)[C@H]1NC(=O)OC(C)(C)C` [Compound 1024, tert-butyl ((2R,6S,7R,9S,13aS,14aR,16aS,Z)-14a-(((1-(fluoromethyl)cyclopropyl)sulfonyl)carbamoyl)-2-((3-isopropyl-7-methoxyquinoxalin-2-yl)oxy)-7-(methoxymethyl)-9-methyl-5,16-dioxo-1,2,3,5,6,7,8,9,10,11,13a,14,14a,15,16,16a-hexadecahydrocyclopropa[e]pyrrolo[1,2-a][1,4]diazacyclopentadecin-6-yl)carbamate], the concentration for a half-maximal effect (EC50) in assay [1] (read-out: LE_1a (EC50, range)) is 35 to 620 nM; in assay [2] (read-out: LE_1b (EC50, range)), 5.01 to 35 nM.
